Assay results as given in patent US4753951A, “Condensed imidazopyridine derivatives useful as psychotropic agents” (Shionogi & Co., Ltd., priority 1985, dated 1988).
Where two headings read alike, the source gives them in different places.

Assays:
benzodiazepine receptor = test: Binding Test to Benzodiazepine Receptor (inhibition of tritium labeled diazepam binding); set-up: species or system Wistar rats; conditions: 2nM tritium labeled diazepam; rat cerebral cortex; 0° C., 6 minutes; calculated from IC50
Procedure: Binding Test to Benzodiazepine Receptor
This test was carried out in the modified mehtod of Mohler et al. Science, 198, 849-851 (1977).
Receptor preparation was provided from the cerebral cortex of Wistar rats (male, 11 to 13 weeks age). Inhibitory action of the test compound on the specific binding of tritium labeled diazepam to the receptor was evaluated as follows. 2nM tritium labeled diazepam and an aqueous solution of the test compound at 5 or 6 concentrations were incubated with the receptor preparation at 0° C. for 6 minutes. The 50% inhibitory concentration (IC50) was measured by the concentration-response curve.
The inhibitory constant (Ki) was calculated according to the following equation, in which Kd is the dissociation constant of the tritium labeled diazepam and L is the concentration of the labeled ligand.

[1] = test system: Pentyleneterazole-Induced Convulsion; test: Antagonism of Pentyleneterazole-Induced Convulsion (agonistic activity); type: in vivo, male mice; conditions: Mus musculus; intravenous; mice; pentylenetetrazole 125 mg/kg, s.c.; 2-h observation; probit; read-out: ED50 (prevention of tonic convulsion and death)
Procedure: Antagonism of Pentyleneterazole-Induced Convulsion
(§1) Agonistic activity was evaluated in this test. Groups of 8-16 male mice were challenged with a dose of 125 mg/kg, s.c. of pentylenetetrazole immediately after intravenous injection of the test compound. The dose required to prevent tonic convulsion and death in 50% of the animal during a 2-h observation period was calculated by the probit method.

[2] = test system: mice gripping the wire with hindpaws; test: Traction Test; type: in vivo; conditions: Mus musculus, 0.5 h, read-out: Traction Test ED50
Procedure: The modified method of Courvoisier et al. (in "Psychotropic Drugs", ed. by S. Garattini & R. Ducrot. p 373. Elsevier Publishing Co., Amsterdam, 1957) was employed. Groups of 10 mice were made to hang onto a horizontal metal wire (diameter: 1 mm) by grasping and holding with their forepaws 30 minutes after oral administration of the test compound, and the number of mice gripping the wire with hindpaws within 10 sec was counted. The ED50 was calculated by the probit method.

conflict behavior = test: Anticonflict Test; type: in vivo; conditions: Rattus norvegicus; oral; male Wistar rats; 1 hour observation starting 30 minutes after administration; probit; read-out: Anti-conflict activity ED50
Procedure: The modified method of Geller and Seifter (Psychopharmacol, 1, 482, 1960) was employed. Groups of 5 or more male Wistar rats with well-established conflict behavior were used. A dose was determined as positive when the numbuer of electric shocks (punishment) exceeded more than 12 during a 1 hour observation period starting 30 minutes after oral administration of the test compound. The ED50 was calculated by the probit method.

[3] = test system: Pentylenetetrazole-Induced Convulsion; test: Potentiation of Pentylenetetrazole-Induced Convulsion (inverse agonist activity); type: in vivo; conditions: Mus musculus; intravenous; mice; pentylenetetrazole 90 mg/kg s.c. (subconvulsive); 2-h observation; probit; read-out: ED50 (production of tonic convulsion and death)
Procedure: Potentiation of Pentylenetetrazole-Induced Convulsion
as §1, with “Inverse agonist” for “Agonistic”, “8-16” for “8-16 male”, “90 mg/kg.” for “125 mg/kg,”, “(a subconvulsive dose) immidiately” for “immediately”, “produce” for “prevent”, “animals” for “animal”

[4] = oral, mice, 30 minutes after administration, gripping within 10 sec, probit

SMILES	Ki (benzodiazepine receptor)	ED50 [1]	other results
Cc1cc(-c2nc3cnc4ccccc4c3[nH]2)ns1 [Compound C67]	2.07 nM		
Cc1cc(-c2nc3cnc4ccc(F)cc4c3[nH]2)on1 [Compound C49]	0.237 nM	0.32 mg/kg	ED50 [2, 4]: > 200 mg/kg; ED50 (conflict behavior): 1.19 mg/kg
Fc1ccc2c(c1)ncc1nc(-c3ccon3)[nH]c12 [Compound C60]	0.495 nM		
Cc1cc(-c2nc3cnc4ccccc4c3[nH]2)on1 [Compound C45, 2-(3-methylisoxazol-5-yl)-1H-imidazo[4,5-c]quinoline]	0.582 nM	0.71 mg/kg	ED50 [2, 4]: > 200 mg/kg; ED50 (conflict behavior): 2.68 mg/kg
Cc1cc(-c2nc3cnc4ccccc4c3[nH]2)sn1 [Compound C68]	1.19 nM		
Cc1csc(-c2nc3cnc4ccccc4c3[nH]2)n1 [Compound C71]	4.57 nM		ED50 [3]: 4.18 mg/kg
c1ccc2c(c1)ncc1nc(-c3ccon3)[nH]c12 [Compound C58]	0.525 nM		ED50 [3]: 1.65 mg/kg
COc1ccc(-c2nc3cnc4ccccc4c3[nH]2)cc1 [Compound C13]	8.73 nM	4.61 mg/kg	
Clc1ccc2c(c1)ncc1nc(-c3cccs3)[nH]c12 [Compound C35]	19.5 nM		ED50 [3]: 1.76 mg/kg
c1ccc2c(c1)ncc1nc(-c3cnns3)[nH]c12 [Compound C70]	5.4 nM		
CN1C(=O)CN=C(c2ccccc2)c2cc(Cl)ccc21 [Diazepam, reference compound]			ED50 ([2]; po): 5.06 mg/kg; ED50 (conflict behavior): 1.05 mg/kg
Clc1ccc(-c2nc3cnc4ccccc4c3[nH]2)s1 [Compound C2]	0.97 nM	16 mg/kg	
Cc1cc(-c2nc3cnc4cc(F)ccc4c3[nH]2)on1 [Compound C48]	0.907 nM	0.59 mg/kg	ED50 [2, 4]: > 200 mg/kg; ED50 (conflict behavior): 1.8 mg/kg
Cc1csc(-c2nc3cnc4cc(Cl)ccc4c3[nH]2)c1 [Compound C38]	15.6 nM	8.52 mg/kg	
Clc1ccc2c(c1)ncc1nc(-c3ccon3)[nH]c12 [Compound C59]	1.23 nM	3.01 mg/kg	
Fc1ccccc1-c1nc2cnc3ccccc3c2[nH]1 [Compound C21]	1.8 nM	2.05 mg/kg	
c1csc(-c2nc3cnc4sccc4c3[nH]2)c1 [Compound F7]	725 nM		ED50 [3]: 0.5 mg/kg
Fc1ccc(-c2nc3cnc4ccccc4c3[nH]2)cc1 [Compound C3, 2-(4-fluorophenyl)-1H-imidazo[4,5-c]quinoline]	15.8 nM	2.31 mg/kg	
Fc1cccc(-c2nc3cnc4ccccc4c3[nH]2)c1 [Compound C20]	27.7 nM	3.9 mg/kg	
Cc1cc(-c2nc3cnc4ccccc4c3[nH]2)no1 [Compound C61]	0.661 nM	0.74 mg/kg	
c1csc(-c2nc3cnc4ccsc4c3[nH]2)c1 [Compound K5]	10.1 nM		ED50 [3]: 0.54 mg/kg
CCc1cc(-c2nc3cnc4ccccc4c3[nH]2)on1 [Compound C46]	0.97 nM	1.2 mg/kg	
Cc1cc2c(ncc3nc(-c4cccs4)[nH]c32)s1 [Compound F2, 2-(Thien-2-yl)-7-methyl-1H-imidazo[4,5-d]thieno[2,3-b]pyridine]	31.8 nM		ED50 [3]: 0.13 mg/kg
